Results: patent US6642365B1, “Anti-(retro)viral conjugates of saccharides and acetamidino or guanidino compounds” (Yeda Research and Development Co. Ltd., priority 2001, dated 2003)
Where two headings read alike, the source gives them in different places.

Columns and labels:
[1] = tested on: HIV-1 NL4-3 AMD3100-resistant; assay type: cell-based; conditions: for cross-resistance of NL4-3 AMD3100-resistant virus: relative to NL4-3
HIV-1 NL4-3 = assay: Anti-HIV assay, MTT, MT-4 cells; assay type: cell-based
Protocol: (§1) The HIV-1 strains NL4-3 and Ba-L and the CD4^+lymphocytic cell lines SUP-T1, MT-4 and MT-2 and P4-CCR5 MAGI cells were obtained from the MRC AIDS reagent program or the NIH, AIDS Research and Reference Reagent Program.
(§2) The cells were infected by incubation with different titers of the HIV-1 strains for 2 hrs at 37° C. in the presence or absence of the AAC of the invention. Then the cells were washed from the virus by centrifugation at 400 g and the supernatants were discarded. The cells were resuspended in culture medium, supplemented with different concentrations of the test compounds. The cells were allowed to proliferate for 5 days, the number of viable cells was quantified by a tetrazolium-based colorimetric method (CellTiter 96® AQueous One solution Cell Proliferation Assay, Promega). Anti-HIV activity in P4-CCR5 MAGI cells was done as follows: cells (1×10^5/ml) were infected with 10 ng/ml of p24 antigen of HIV-1 Ba-L in the presence of varying concentrations of the test compound. 24 hours post infection, cells were washed twice with PBS and resuspended in the medium containing the appropriate drug concentration. Five days after infection the cells were washed with PBS and evaluated for β-galactosidase activity.

HIV-1 Ba-L = assay: Anti-HIV assay, β-galactosidase activity in P4-CCR5 MAGI cells; assay type: cell-based
Protocol: as §1, §2

MT-4 cells = assay: Cytotoxicity in MT-4 cells, MTT; assay type: cell-based, human; conditions: viability of MT-4 cells, MTT assay
Protocol: as §2

HIV-1 RF = assay: Anti-HIV assay, MTT; assay type: cell-based
HIV-1 2D = assay type: cell-based
Protocol: (§3) T-tropic HIV-1 laboratory strains IIIb, 2D as well as AZT-resistant and UC781-resistant strains were utilized in this study, along with clinical isolate (clade C). HIV-1 clinical isolate, resistant to AZT is a generous gift from Dr. Mark A. Wainberg, McGill AIDS Center, McGill University, Montreal, Canada.
(§4) MT-2 or MT-4 cells were cultured in RPMI 1640 supplemented with 10% fetal calf serum (FCS), 0.2 mM glutamine and penicilline/streptomycin/nistatin mixture. The cells were propagated in 96-well tissue culture plates at the density of 5×10^4 cells per well. Peripheral mononuclear blood cells (PMBC) were separated from whole blood samples by centrifugation in Ficoll gradient for 10 min at 400 g. PMBC were cultured in the same medium in 24-well tissue culture plates at the density of about 10^6 cells per well.

[2] = tested on: MT-2 cells as well as PMBC lines ETH and IS; conditions: ratio CC50/EC50
Protocol: as §2

HIV-1 IIIB = assay: Anti-HIV assay, syncytium formation and tetrazolium colorimetric assay; assay type: cell-based; conditions: range over IIIb, 2D, AZT resistant, UC781 resistant and clade C HIV-1
Protocol: as §3, §4

[3] = tested on: HIV-1 clinical isolate, resistant to AZT; assay: as above; assay type: cell-based; conditions: average of two independent experiments in duplicates; read-out: EC50 HIV-1 AZTres
Protocol: as §3, §4

[4] = tested on: HIV-1 clinical isolate (clade C); assay: as above; assay type: cell-based
Protocol: as §3, §4

[5] = MTT assay, read-out: EC50 HIV-1 RF
[6] = average of two independent experiments in duplicates

Compound	cross-resistance of NL4-3 AMD3100-resistant virus [1] [fold]	EC50 (HIV-1 NL4-3) [µM]	EC50 (HIV-1 Ba-L) [µM]	CC50 (MT-4 cells) [µM]	EC50 (HIV-1 RF; [5]) [µM]	EC50 ([1]; MTT assay, read-out: EC50 HIV-1 AMD 3100res) [µM]	antiviral effect in the presence of AZT (HIV-1 2D; HIV-1 2D and clade C)	EC50 (HIV-1 2D; [6]) [µM]	TI50 [2]	EC50 (HIV-1 IIIB) [µM]	EC50 [3] [µM]	inhibition of virus growth ([4]; MT-2 cells infected in presence of 20 μM R3G or 10 μM NeoR, then 3 days without AAC) [%]	EC50 [4, 6] [µM]	EC50 (HIV-1 RF; range over HIV-1 RF strain, AOM clinical isolate and M-tropic Ba-L strain, read-out: EC50) [µM]
N=C(N)NCCCC(N)C(=O)NCC1OC(OC2C(NC(=O)C(N)CCCNC(=N)N)CC(NC(=O)C(N)CCCNC(=N)N)C(OC3OC(CO)C(O)C(NC(=O)C(N)CCCNC(=N)N)C3O)C2O)C(O)C(O)C1O (stereo not drawn) [R4K, Tetraargininamido-kanamycin A conjugate]	> 4	31	> 113	> 1130	> 113									
Triargininamido-gentamicin conjugate [R3G]	> 9	15	29		35	> 133	additive	10	50-85	6 to 10	8	30	6	16 to 35
